Test results published in ChEMBL document CHEMBL5506027, “Discovery of a Novel and Potent Cyclin-Dependent Kinase 8/19 (CDK8/19) Inhibitor for the Treatment of Cancer” (J Med Chem, 2024).
pIC50: −log10 of the molar value.

Legend:
[1] = molecular target: CDK8/Cyclin C (Homo sapiens, UniProt P49336); test: Displacement of tracer 236 from CDK8/cyclin C (unknown origin) preincubated for 15 mins followed by tracer addition and measured after 60 mins by FRET based lanthascreen assay; format: protein-complex assay
CDK8/Cyclin C, sequence (P49336 whole entry): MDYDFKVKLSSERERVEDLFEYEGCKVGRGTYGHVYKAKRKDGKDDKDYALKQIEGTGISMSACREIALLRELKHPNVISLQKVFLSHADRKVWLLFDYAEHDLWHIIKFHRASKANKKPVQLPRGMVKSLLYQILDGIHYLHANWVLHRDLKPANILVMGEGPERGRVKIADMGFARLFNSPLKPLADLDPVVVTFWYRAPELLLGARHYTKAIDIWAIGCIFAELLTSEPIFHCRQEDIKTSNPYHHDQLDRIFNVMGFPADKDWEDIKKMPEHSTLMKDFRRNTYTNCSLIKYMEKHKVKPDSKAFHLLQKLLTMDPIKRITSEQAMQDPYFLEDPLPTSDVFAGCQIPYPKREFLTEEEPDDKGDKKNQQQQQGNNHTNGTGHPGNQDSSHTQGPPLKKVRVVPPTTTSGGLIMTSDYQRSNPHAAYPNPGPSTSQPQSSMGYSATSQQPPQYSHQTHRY
CDK8/Cyclin C, sequence (P24863 whole entry, further chain): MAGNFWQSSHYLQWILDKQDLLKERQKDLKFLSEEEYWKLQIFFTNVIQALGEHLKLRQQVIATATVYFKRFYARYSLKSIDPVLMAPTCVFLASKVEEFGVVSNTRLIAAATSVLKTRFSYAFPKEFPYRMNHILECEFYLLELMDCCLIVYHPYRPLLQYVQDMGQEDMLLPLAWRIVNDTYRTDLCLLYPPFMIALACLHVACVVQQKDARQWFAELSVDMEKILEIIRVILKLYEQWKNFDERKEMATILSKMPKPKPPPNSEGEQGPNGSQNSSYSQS

[2] = tested on: MV4-11; test: Antiproliferative activity against human MV4-11 cells incubated for 5 days by CellTiter-Glo luminescent cell viability assay; format: functional, cell-based; settings: MV4-11, 120 h

Row | SMILES | pIC50 [1] | pIC50 [2]
1 | Brc1cc2nc(N3CCNCC3)n(C3CCOCC3)c2cc1Br | 6.78 | 6.28
2 | C#Cc1c(Br)c(Br)cc2c1nc(N1CCNCC1)n2C1CCOCC1 | 7.97 | 7.14
3 | C=Cc1c(Br)c(Br)cc2c1nc(N1CCNCC1)n2C1CCOCC1 | 7.47 | 6.44
4 | NC1CCN(c2nc3c(C(F)F)c(Br)c(Br)cc3n2C2CCOCC2)CC1 | 7.46 | 6.73
5 | N[C@@H]1CCN(c2nc3c(C(F)F)c(Br)c(Br)cc3n2C2CCOCC2)C1 | 7.70 | 7.47
6 | Clc1c(Br)c(Br)cc2c1nc(N1CCNCC1)n2C1CCOCC1 | 7.04 | < 6.00
7 | OCCN1CCN(c2nc3c(C(F)F)c(Br)c(Br)cc3n2C2CCOCC2)CC1 | 8.19 | 7.49
8 | Brc1cc2c(nc(N3CCNCC3)n2C2CCOCC2)c(C2CC2)c1Br | 7.31 | < 6.00
9 | CN1CCN(c2nc3c(C(F)F)c(Br)c(Br)cc3n2C2CCOCC2)CC1 | 8.19 | 6.82

Second part, the molecule after the results:

Row | pIC50 [1] | pIC50 [2] | SMILES
10 | 7.95 | 6.84 | Cc1c(Br)c(Br)cc2c1nc(N1CCNCC1)n2[C@H]1CC[C@H](O)CC1
11 | 7.44 | 6.38 | Cc1c(Br)c(Br)cc2c1nc(N1CCNCC1)n2C1CCCC1
12 | 8.10 | 7.40 | Cc1c(Br)c(Br)cc2c1nc(N1CCNCC1)n2C1CCOCC1
13 | 7.78 | 6.32 | Cc1c(Br)c(Br)cc2c1nc(N1CCNCC1)n2C1CCCOC1 (stereo not given)
14 | 6.86 | < 6.00 | Cc1c(Br)c(Br)c(C)c2c1nc(N1CCNCC1)n2C1CCCC1
15 | < 6.00 | 6.10 | Cc1c(Br)c(Br)cc2c1nc(N1CCNCC1)n2C1CC2(COC2)C1
